According to patent publication EP4678638A1, “NEW E3 UBIQUITIN LIGASE LIGAND, PROTEIN DEGRADATION AGENT AND USE THEREOF” (priority 2023, dated 2024):

Tests used:
H1975 = experiment: CCK-8 proliferation, NCI-H1975 (H1975); assay type: cell-based, Human; conditions: Homo sapiens, NCI-H1975; CCK-8; 96 hours; read-out: Inhibitory activity (IC50) on tumor cell proliferation, H1975
Summary of the method: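 CCK-8 viability readout; IC50 from growth-inhibition curve fitting. Cells plated, dosed 24h later with a 10-point series, top 10µM, 5-fold steps. Culture at 37°C, 5% CO2.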

EGFR = experiment: Western blot degradation of EGFR (H1975 Cell); assay type: cell-based, Human; conditions: Table D2
Summary of the method: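 Degradation is assessed by immunoblotting lysates of treated cells. Target bands are quantified by grayscale and normalised to an internal control, so degradation rate equals 100% minus % remaining.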

`O=C1CCN(c2ccc(CN3CCN(C4CCN(c5ccc(-c6cc(F)c7c(c6)C(=O)N(C(C(=O)Nc6nccs6)c6ncn8c6CCC8)C7)cc5)CC4(F)F)CC3)nc2)C(=O)N1` (centres unmarked) [GT-06319, 2-(6,7-dihydro-5H-pyrrolo[1,2-c]imidazol-1-yl)-2-(6-(4-(4-(4-((5-(2,4-dioxotetrahydropyrimidin-1(2H)-yl)pyridin-2-yl)methyl)piperazin-1-yl)-3,3-difluoropiperidin-1-yl)phenyl)-4-fluoro-1-oxoisoindolin-2-yl)-N-(thiazol-2-yl)acetamide] was tested, and the IC50 (H1975) was 1 to 10 nM and the “Degradation of substrate protein EGFR (substrate protein remaining %)” value (“Degradation … (substrate protein remaining %)” for short) (EGFR) was “A (A is defined as 0% ≤ substrate protein remaining % ≤ 80%)”.
`O=C1CCC(Nc2cccc(CN3CCN(C4CCN(c5ccc(-c6cc(F)c7c(c6)C(=O)N(C(C(=O)Nc6nccs6)c6ncn8c6CCC8)C7)cc5)CC4(F)F)CC3)c2)C(=O)N1` (centres unmarked) [GT-06321, 2-(6,7-dihydro-5H-pyrrolo[1,2-c]imidazol-1-yl)-2-(6-(4-(4-(4-(3-((2,6-dioxopiperidin-3-yl)amino)benzyl)piperazin-1-yl)-3,3-difluoropiperidin-1-yl)phenyl)-4-fluoro-1-oxoisoindolin-2-yl)-N-(thiazol-2-yl)acetamide] was tested, and the IC50 (H1975) was 10 to 50 nM and the “Degradation … (substrate protein remaining %)” value (EGFR) was “A (A is defined as 0% ≤ substrate protein remaining % ≤ 80%)”.
`O=C1CCC(c2ccc(CN3CCC(N4CCN(c5ccc(-c6cc(F)c7c(c6)C(=O)N(C(C(=O)Nc6nccs6)c6ncn8c6CCC8)C7)cc5)CC4)CC3)cc2)C(=O)N1` (centres unmarked) [GT-06326, 2-(6,7-dihydro-5H-pyrrolo[1,2-c]imidazol-1-yl)-2-(6-(4-(4-(1-(4-(2,6-dioxopiperidin-3-yl)benzyl)piperidin-4-yl)piperazin-1-yl)phenyl)-4-fluoro-1-oxoisoindolin-2-yl)-N-(thiazol-2-yl)acetamide] was tested, and the IC50 (H1975) was 10 to 50 nM and the “Degradation … (substrate protein remaining %)” value (EGFR) was “A (A is defined as 0% ≤ substrate protein remaining % ≤ 80%)”.
With `O=C1CCN(c2ccc(CN3CCC(N4CCN(c5ccc(-c6cc(F)c7c(c6)C(=O)N(C(C(=O)Nc6nccs6)c6ncn8c6CCC8)C7)cc5)CC4)CC3)nc2)C(=O)N1` (centres unmarked) [GT-06329, 2-(6,7-dihydro-5H-pyrrolo[1,2-c]imidazol-1-yl)-2-(6-(4-(4-(1-((5-(2,4-dioxotetrahydropyrimidin-1(2H)-yl)pyridin-2-yl)methyl)piperidin-4-yl)piperazin-1-yl)phenyl)-4-fluoro-1-oxoisoindolin-2-yl)-N-(thiazol-2-yl)acetamide] the IC50 (H1975) was 1 to 10 nM and the “Degradation … (substrate protein remaining %)” value (EGFR) was “A (A is defined as 0% ≤ substrate protein remaining % ≤ 80%)”.
In the case of `O=C1CCN(c2ccc(CN3CCC(N4CCN(c5ccc(-c6cc(F)c7c(c6)C(=O)N(C(C(=O)Nc6nccs6)c6ncn8c6CCC8)C7)cc5)CC4)CC3)cn2)C(=O)N1` (centres unmarked) [GT-06330, 2-(6,7-dihydro-5H-pyrrolo[1,2-c]imidazol-1-yl)-2-(6-(4-(4-(1-((6-(2,4-dioxotetrahydropyrimidin-1(2H)-yl)pyridin-3-yl)methyl)piperidin-4-yl)piperazin-1-yl)phenyl)-4-fluoro-1-oxoisoindolin-2-yl)-N-(thiazol-2-yl)acetamide], the IC50 (H1975) is reported as 1 to 10 nM and the “Degradation … (substrate protein remaining %)” value (EGFR) is reported as “A (A is defined as 0% ≤ substrate protein remaining % ≤ 80%)”.
With `O=C1CCC(Nc2cccc(CN3CCC(N4CCN(c5ccc(-c6cc(F)c7c(c6)C(=O)N(C(C(=O)Nc6nccs6)c6ncn8c6CCC8)C7)cc5)CC4)CC3)c2)C(=O)N1` (centres unmarked) [GT-06331, 2-(6,7-dihydro-5H-pyrrolo[1,2-c]imidazol-1-yl)-2-(6-(4-(4-(1-(3-((2,6-dioxopiperidin-3-yl)amino)benzyl)piperidin-4-yl)piperazin-1-yl)phenyl)-4-fluoro-1-oxoisoindolin-2-yl)-N-(thiazol-2-yl)acetamide] the IC50 (H1975) was 10 to 50 nM and the “Degradation … (substrate protein remaining %)” value (EGFR) was “A (A is defined as 0% ≤ substrate protein remaining % ≤ 80%)”.
In the case of `CN(Cc1ccnc(N2CCC(=O)NC2=O)c1)C1CCN(c2ccc(-c3cc(F)c4c(c3)C(=O)N(C(C(=O)Nc3nccs3)c3ncn5c3CCC5)C4)cc2)CC1` (centres unmarked) [GT-07383, 2-(6,7-dihydro-5H-pyrrolo[1,2-c]imidazol-1-yl)-2-(6-(4-(4-(((2-(2,4-dioxotetrahydropyrimidin-1(2H)-yl)pyridin-4-yl)methyl)(methyl)amino)piperidin-1-yl)phenyl)-4-fluoro-1-oxoisoindolin-2-yl)-N-(thiazol-2-yl)acetamide], the IC50 (H1975) is reported as 1 to 10 nM and the “Degradation … (substrate protein remaining %)” value (EGFR) is reported as “A (A is defined as 0% ≤ substrate protein remaining % ≤ 80%)”.
In the case of `O=C1CCN(c2cc(CN3C[C@H]4C[C@@H]3CN4c3ccc(-c4cc(F)c5c(c4)C(=O)N(C(C(=O)Nc4nccs4)c4ncn6c4CCC6)C5)cc3)c(F)cn2)C(=O)N1` (stereo partly drawn) [GT-07386, 2-(6,7-dihydro-5H-pyrrolo[1,2-c]imidazol-1-yl)-2-(6-(4-((1R,4R)-5-((2-(2,4-dioxotetrahydropyrimidin-1(2H)-yl)-5-fluoropyridin-4-yl)methyl)-2,5-diazabicyclo[2.2.1]heptan-2-yl)phenyl)-4-fluoro-1-oxoisoindolin-2-yl)-N-(thiazol-2-yl)acetamide], the IC50 (H1975) is reported as 1 to 10 nM and the “Degradation … (substrate protein remaining %)” value (EGFR) is reported as “A (A is defined as 0% ≤ substrate protein remaining % ≤ 80%)”.
For `O=C1CCN(c2cncc(CN3C[C@H]4C[C@@H]3CN4c3ccc(-c4cc(F)c5c(c4)C(=O)N(C(C(=O)Nc4nccs4)c4ncn6c4CCC6)C5)cc3)c2)C(=O)N1` (stereo partly drawn) [GT-07388, 2-(6,7-dihydro-5H-pyrrolo[1,2-c]imidazol-1-yl)-2-(6-(4-((1R,4R)-5-((5-(2,4-dioxotetrahydropyrimidin-1(2H)-yl)pyridin-3-yl)methyl)-2,5-diazabicyclo[2.2.1]heptan-2-yl)phenyl)-4-fluoro-1-oxoisoindolin-2-yl)-N-(thiazol-2-yl)acetamide], the IC50 (H1975) was 1 to 10 nM and the “Degradation … (substrate protein remaining %)” value (EGFR) was “A (A is defined as 0% ≤ substrate protein remaining % ≤ 80%)”.
For `O=C1CCC(c2ccc(CN3C[C@H]4C[C@@H]3CN4c3ccc(-c4cc(F)c5c(c4)C(=O)N(C(C(=O)Nc4nccs4)c4ncn6c4CCC6)C5)cc3)nc2)C(=O)N1` (stereo partly drawn) [GT-07389, 2-(6,7-dihydro-5H-pyrrolo[1,2-c]imidazol-1-yl)-2-(6-(4-((1R,4R)-5-((5-(2,6-dioxopiperidin-3-yl)pyridin-2-yl)methyl)-2,5-diazabicyclo[2.2.1]heptan-2-yl)phenyl)-4-fluoro-1-oxoisoindolin-2-yl)-N-(thiazol-2-yl)acetamide], the IC50 (H1975) was 1 to 10 nM and the “Degradation … (substrate protein remaining %)” value (EGFR) was “A (A is defined as 0% ≤ substrate protein remaining % ≤ 80%)”.
In the case of `O=C1CCC(c2cc(CN3C[C@H]4C[C@@H]3CN4c3ccc(-c4cc(F)c5c(c4)C(=O)N(C(C(=O)Nc4nccs4)c4ncn6c4CCC6)C5)cc3)ccn2)C(=O)N1` (stereo partly drawn) [GT-07390, 2-(6,7-dihydro-5H-pyrrolo[1,2-c]imidazol-1-yl)-2-(6-(4-((1R,4R)-5-((2-(2,6-dioxopiperidin-3-yl)pyridin-4-yl)methyl)-2,5-diazabicyclo[2.2.1]heptan-2-yl)phenyl)-4-fluoro-1-oxoisoindolin-2-yl)-N-(thiazol-2-yl)acetamide], the IC50 (H1975) is reported as 1 to 10 nM and the “Degradation … (substrate protein remaining %)” value (EGFR) is reported as “A (A is defined as 0% ≤ substrate protein remaining % ≤ 80%)”.
With `O=C1CCC(c2cncc(CN3C[C@H]4C[C@@H]3CN4c3ccc(-c4cc(F)c5c(c4)C(=O)N(C(C(=O)Nc4nccs4)c4ncn6c4CCC6)C5)cc3)c2)C(=O)N1` (stereo partly drawn) [GT-07391, 2-(6,7-dihydro-5H-pyrrolo[1,2-c]imidazol-1-yl)-2-(6-(4-((1R,4R)-5-((5-(2,6-dioxopiperidin-3-yl)pyridin-3-yl)methyl)-2,5-diazabicyclo[2.2.1]heptan-2-yl)phenyl)-4-fluoro-1-oxoisoindolin-2-yl)-N-(thiazol-2-yl)acetamide] the IC50 (H1975) was 1 to 10 nM and the “Degradation … (substrate protein remaining %)” value (EGFR) was “A (A is defined as 0% ≤ substrate protein remaining % ≤ 80%)”.
`CN(Cc1cncc(C2CCC(=O)NC2=O)c1)C1CCN(c2ccc(-c3cc(F)c4c(c3)C(=O)N(C(C(=O)Nc3nccs3)c3ncn5c3CCC5)C4)cc2)CC1` (centres unmarked) [GT-07393, 2-(6,7-dihydro-5H-pyrrolo[1,2-c]imidazol-1-yl)-2-(6-(4-(4-(((5-(2,6-dioxopiperidin-3-yl)pyridin-3-yl)methyl)(methyl)amino)piperidin-1-yl)phenyl)-4-fluoro-1-oxoisoindolin-2-yl)-N-(thiazol-2-yl)acetamide] was tested, and the IC50 (H1975) was 1 to 10 nM and the “Degradation … (substrate protein remaining %)” value (EGFR) was “A (A is defined as 0% ≤ substrate protein remaining % ≤ 80%)”.
